According to patent US9895346B2, “Applications of substituent benzyloxy group containing ether compounds for preparing antitumor drugs” (Sinochem Corporation, priority 2013, dated 2018):

Tests used:
[1] = test system: bladder cancer cell line J82; assay: In vitro cell inhibition assay (crystal violet), bladder cancer J82; type: cell-based, human
Source text: (§1) In vitro Cell inhibition assay is as follows:
(§2) The human cancer cell lines used for this assay were bladder cancer J82, T24, prostate cancer LNCap, PC-3, lung cancer A549, H157, H460, H520, colon cancer HCT8, HCT116, RkO, and leukemia HL-60, etc.
(§3) In vitro cell culture technology was selected for the determination of inhibition rate bladder cancer cell lines J82 and T24, prostate cancer cell lines LNCap and PC-3, lung cancer cell lines A549, H157, H460 and H520. 1000 to 3000 cells were inoculated to 24-well plate, followed by addition of 1 mL culture medium well known to researchers in this field to each well, the cells were cultured in 5% incubator for 24 hours at 37° C., then the different concentration compounds and controls were added to each well. It should be noted that the added volume is not more than 0.5% of total volume. After completion of addition, the cells continued being cultured in incubator for one week, the culture medium was removed and washed by cold PBS of 1 mL once, and then fixed for 10 minutes at room temperature with 1% formalin, followed by wash with PBS of 1 mL. After fixation, stain was carried out with 0.1% crystal violet for 30 minutes. 0.1% crystal violet was recycled. The stained cells were washed gently with deionized water, dried at room temperature and kepted. The inhibition rate was calculated according to the foiling equation. The controls are Selumetinib (AZD6244), Gefitinib, Cisplatin. Inhibition rate=number of left cells each treatment/number of left cells of untreated control×100%

[2] = test system: bladder cancer cell line T24; assay: In vitro cell inhibition assay (crystal violet), bladder cancer T24; type: cell-based, human
Source text: as §1, §2, §3

[3] = test system: prostate cancer cell line LNCap; assay: In vitro cell inhibition assay (crystal violet), prostate cancer LNCap; type: cell-based, human
Source text: as §1, §2, §3

[4] = test system: prostate cancer cell line PC-3; assay: In vitro cell inhibition assay (crystal violet), prostate cancer PC-3; type: cell-based, human
Source text: as §1, §2, §3

[5] = test system: lung cancer cell line A549; assay: In vitro cell inhibition assay (crystal violet), lung cancer A549; type: cell-based, human
Outline: (§4)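 1000-3000 cells per well grown 24 h at 37 °C, then exposed to compound for one week (vehicle ≤0.5% of volume). Cells formalin-fixed and stained with 0.1% crystal violet. Inhibition rate = remaining cells in treated wells / remaining cells in untreated control × 100%.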

[6] = test system: lung cancer cell line H157; assay: In vitro cell inhibition assay (crystal violet), lung cancer H157; type: cell-based, human
Source text: as §1, §2, §3

[7] = test system: lung cancer cell line H460; assay: In vitro cell inhibition assay (crystal violet), lung cancer H460; type: cell-based, human
Outline: as §4

[8] = test system: lung cancer cell line H520; assay: In vitro cell inhibition assay (crystal violet), lung cancer H520; type: cell-based, human
Outline: as §4

[9] = test system: human leukemia HL-60 cells; assay: Proliferation inhibition of human leukemia HL-60 cells, MTT method; type: cell-based; conditions: 48 h incubation, OPTI-MEM medium
Experimental: The inhibition rate of human leukemia HL-60 cells was evaluated by regular MTT method. The human leukemia HL-60 cells were picked up from cell incubator, after washed for twice using PBS, cells were digested by 0.25% trypsin, and then add medium to terminate the digestion. After cells were collected using centrifuge and re-suspended, counting cells under inverted microscope and adding medium to make a density which was 5×10^4 cells/mL. After 100 μL aliquots were added to each well of 96-well microtiter plates, cells were cultured in 5% incubator for overnight at 37° C., then the different concentration compounds were added to each well. After incubation for 48 h, MTT solution was added to each well and plates were then incubated for 4 h. The MTT tetrazolium was reduced to formazan by living cells. Then the formazan crystals were dissolved though adding DMSO to each well. The absorbance was read at 570 nm with a microplate reader.

colon cancer HCT8 = assay: In vitro cell inhibition assay, colon cancer HCT8; type: cell-based, human; conditions: Homo sapiens, read-out: Inhibition rate on human cancer cells
Source text: as §1, §2

colon cancer HCT116 = assay: In vitro cell inhibition assay, colon cancer HCT116; type: cell-based, human; conditions: Homo sapiens, read-out: Inhibition rate on human cancer cells
Source text: as §1, §2

colon cancer RkO = assay: In vitro cell inhibition assay, colon cancer RkO; type: cell-based, human; conditions: Homo sapiens, read-out: Inhibition rate on human cancer cells
Source text: as §1, §2

jiaxiangjunzhi [Compound 28-5]
Inhibition rate on human cancer cells ([1]; J82, 1.0 μM): 80%
Inhibition rate on human cancer cells ([1]; J82, 2.5 μM): 100%
Inhibition rate on human cancer cells ([1]; J82, 5.0 μM): 100%
Inhibition rate on human cancer cells ([2]; T24, 0.25 μM): 100%
Inhibition rate on human cancer cells ([2]; T24, 0.5 μM): 100%
Inhibition rate on human cancer cells ([2]; T24, 1.0 μM): 100%
Inhibition rate on human cancer cells ([2]; T24, 2.5 μM): 100%
Inhibition rate on human cancer cells ([2]; T24, 5.0 μM): 100%
Inhibition rate on human cancer cells ([3]; 1.0 μM): 100%
Inhibition rate on human cancer cells ([3]; 2.5 μM): 100%
Inhibition rate on human cancer cells ([3]; 5.0 μM): 100%
Inhibition rate on human cancer cells ([4]; PC-3, 1.0 μM): 100%
Inhibition rate on human cancer cells ([4]; PC-3, 2.5 μM): 100%
Inhibition rate on human cancer cells ([4]; PC-3, 5.0 μM): 100%
Inhibition rate on human cancer cells ([5]; A549, 1.0 μM): 80%
Inhibition rate on human cancer cells ([5]; A549, 2.5 μM): 100%
Inhibition rate on human cancer cells ([5]; A549, 5.0 μM): 100%
Inhibition rate on human cancer cells ([6]; H157, 0.5 μM): 100%
Inhibition rate on human cancer cells ([6]; H157, 1.0 μM): 100%
Inhibition rate on human cancer cells ([6]; H157, 2.5 μM): 100%
Inhibition rate on human cancer cells ([6]; H157, 5.0 μM): 100%
Inhibition rate on human cancer cells ([7]; H460, 0.5 μM): 100%
Inhibition rate on human cancer cells ([7]; H460, 1.0 μM): 100%
Inhibition rate on human cancer cells ([7]; H460, 2.5 μM): 100%
Inhibition rate on human cancer cells ([7]; H460, 5.0 μM): 100%
Inhibition rate on human cancer cells ([8]; H520, 0.25 μM): 70%
Inhibition rate on human cancer cells ([8]; H520, 0.5 μM): 80%
Inhibition rate on human cancer cells ([8]; H520, 1.0 μM): 90%
Inhibition rate on human cancer cells ([8]; H520, 2.5 μM): 100%
Inhibition rate on human cancer cells ([8]; H520, 5.0 μM): 100%
Proliferation inhibitory effect on human leukemia HL-60 cell (%) ([9]; concentration 1 μM): 31.7%
Proliferation inhibitory effect on human leukemia HL-60 cell (%) ([9]; concentration 10 μM): 59.3%
Proliferation inhibitory effect on human leukemia HL-60 cell (%) ([9]; concentration 100 μM): 73.8%

Cn1cnc2c(F)c(Nc3ccc(Br)cc3Cl)c(C(=O)NOCCO)cc21 [Selumetinib, reference compound]
inhibition at 5 µM ([1]; Homo sapiens, J82, 5.0 μM, read-out: Inhibition rate on human cancer cells): 70%
inhibition at 5 µM ([2]; Homo sapiens, T24, 5.0 μM, read-out: Inhibition rate on human cancer cells): 70%
inhibition at 5 µM ([3]; Homo sapiens, 5.0 μM, read-out: Inhibition rate on human cancer cells): 20%
inhibition at 5 µM ([4]; Homo sapiens, PC-3, 5.0 μM, read-out: Inhibition rate on human cancer cells): 0%
inhibition at 0.25 µM ([5]; Homo sapiens, A549, 0.25 μM, read-out: Inhibition rate on human cancer cells): 0%
inhibition at 0.5 µM ([5]; Homo sapiens, A549, 0.5 μM, read-out: Inhibition rate on human cancer cells): 0%
inhibition at 1 µM ([5]; Homo sapiens, A549, 1.0 μM, read-out: Inhibition rate on human cancer cells): 0%
inhibition at 2.5 µM ([5]; Homo sapiens, A549, 2.5 μM, read-out: Inhibition rate on human cancer cells): 0%
inhibition at 5 µM ([5]; Homo sapiens, A549, 5.0 μM, read-out: Inhibition rate on human cancer cells): 10%
inhibition at 5 µM ([6]; Homo sapiens, NCI-H157, H157, 5.0 μM, read-out: Inhibition rate on human cancer cells): 20%
inhibition at 0.25 µM ([7]; Homo sapiens, NCI-H460, H460, 0.25 μM, read-out: Inhibition rate on human cancer cells): 0%
inhibition at 0.5 µM ([7]; Homo sapiens, NCI-H460, H460, 0.5 μM, read-out: Inhibition rate on human cancer cells): 0%
inhibition at 1 µM ([7]; Homo sapiens, NCI-H460, H460, 1.0 μM, read-out: Inhibition rate on human cancer cells): 0%
inhibition at 2.5 µM ([7]; Homo sapiens, NCI-H460, H460, 2.5 μM, read-out: Inhibition rate on human cancer cells): 0%
inhibition at 5 µM ([7]; Homo sapiens, NCI-H460, H460, 5.0 μM, read-out: Inhibition rate on human cancer cells): 60%
inhibition at 5 µM ([8]; Homo sapiens, NCI-H520, H520, 5.0 μM, read-out: Inhibition rate on human cancer cells): 20%
inhibition at 1 µM (colon cancer HCT8; HCT 8, 1.0 μM): 20%
inhibition at 2.5 µM (colon cancer HCT8; HCT 8, 2.5 μM): 40%
inhibition at 5 µM (colon cancer HCT8; HCT 8, 5.0 μM): 50%
inhibition at 0.25 µM (colon cancer HCT116; HCT 116, 0.25 μM): 50%
inhibition at 0.5 µM (colon cancer HCT116; HCT 116, 0.5 μM): 75%
inhibition at 1 µM (colon cancer HCT116; HCT 116, 1.0 μM): 80%
inhibition at 2.5 µM (colon cancer HCT116; HCT 116, 2.5 μM): 85%
inhibition at 5 µM (colon cancer HCT116; HCT 116, 5.0 μM): 90%
inhibition at 0.25 µM (colon cancer RkO; 0.25 μM): 30%
inhibition at 0.5 µM (colon cancer RkO; 0.5 μM): 80%
inhibition at 1 µM (colon cancer RkO; 1.0 μM): 85%
inhibition at 2.5 µM (colon cancer RkO; 2.5 μM): 90%
inhibition at 5 µM (colon cancer RkO; 5.0 μM): 95%
